Experimental data from PubChem BioAssay (NCI).
Where “and” joins values, the source holds several entries; their conditions need not be identical. Identical values can stand only once.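 Dose response: 5 concentrations. Exposure: 48 h. Format: 96-well plates. Endpoint: linear interpolation; highest concentration if not reached. The concentration for 50% growth inhibition is given as GI50. At the TGI there is no net growth.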

What was measured:
Assay in all cases: inhibition of tumour cell growth, NCI panel, 48 h
786-0 renal = system: 786-0 renal
A498 renal = system: A498 renal
A549 NSCLC = system: A549 NSCLC
ACHN renal = system: ACHN renal
CAKI-1 renal = system: CAKI-1 renal
CCRF-CEM leukemia = system: CCRF-CEM leukemia
COLO 205 colon = system: COLO 205 colon
DLD-1 colon = system: DLD-1 colon
DMS 114 small cell lung = system: DMS 114 small cell lung
DMS 273 small cell lung = system: DMS 273 small cell lung
EKVX NSCLC = system: EKVX NSCLC
HCC-2998 colon = system: HCC-2998 colon
HCT-116 colon = system: HCT-116 colon
HCT-15 colon = system: HCT-15 colon
HL-60(TB) leukemia = system: HL-60(TB) leukemia
HOP-18 NSCLC = system: HOP-18 NSCLC
HOP-62 NSCLC = system: HOP-62 NSCLC
HOP-92 NSCLC = system: HOP-92 NSCLC
HT29 colon = system: HT29 colon
IGROV1 ovarian = system: IGROV1 ovarian
K-562 leukemia = system: K-562 leukemia
KM12 colon = system: KM12 colon
KM20L2 colon = system: KM20L2 colon
LOX IMVI melanoma = system: LOX IMVI melanoma
M14 melanoma = system: M14 melanoma
M19-MEL melanoma = system: M19-MEL melanoma
MALME-3M melanoma = system: MALME-3M melanoma
MOLT-4 leukemia = system: MOLT-4 leukemia
NCI-H226 lung = system: NCI-H226 lung
NCI-H23 lung = system: NCI-H23 lung
NCI-H460 lung = system: NCI-H460 lung
NCI-H522 lung = system: NCI-H522 lung
OVCAR-3 ovarian = system: OVCAR-3 ovarian
OVCAR-4 ovarian = system: OVCAR-4 ovarian
OVCAR-5 ovarian = system: OVCAR-5 ovarian
OVCAR-8 ovarian = system: OVCAR-8 ovarian
RPMI-8226 leukemia = system: RPMI-8226 leukemia
RXF 393 renal = system: RXF 393 renal
RXF-631 renal = system: RXF-631 renal
SF-268 CNS = system: SF-268 CNS
SF-295 CNS = system: SF-295 CNS
SF-539 CNS = system: SF-539 CNS
SK-MEL-2 melanoma = system: SK-MEL-2 melanoma
SK-MEL-28 melanoma = system: SK-MEL-28 melanoma
SK-MEL-5 melanoma = system: SK-MEL-5 melanoma
SK-OV-3 ovarian = system: SK-OV-3 ovarian
SN12C renal = system: SN12C renal
SNB-19 CNS = system: SNB-19 CNS
SNB-75 CNS = system: SNB-75 CNS
SNB-78 CNS = system: SNB-78 CNS
SW-620 colon = system: SW-620 colon
TK-10 renal = system: TK-10 renal
U251 CNS = system: U251 CNS
UACC-257 melanoma = system: UACC-257 melanoma
UACC-62 melanoma = system: UACC-62 melanoma
UO-31 renal = system: UO-31 renal
XF 498 CNS = system: XF 498 CNS
LXFL 529 NSCLC = system: LXFL 529 NSCLC
SR leukemia = system: SR leukemia
BT-549 breast = system: BT-549 breast
DU-145 prostate = system: DU-145 prostate
HS 578T breast = system: HS 578T breast
MDA-MB-231 breast = system: MDA-MB-231 breast
MDA-MB-435 = system: MDA-MB-435
MDA-N = system: MDA-N
NCI/ADR-RES ovarian = system: NCI/ADR-RES ovarian
PC-3 prostate = system: PC-3 prostate
T-47D breast = system: T-47D breast

## COc1c(Br)cc(Br)c(OC)c1-c1[nH]c(Br)c(Br)c1Br
786-0 renal
  TGI: 22.8 µM
A498 renal
  TGI: 26 µM
A549 NSCLC
  TGI: 19.2 µM
ACHN renal
  TGI: 17.1 µM
CAKI-1 renal
  TGI: 9.1 µM
CCRF-CEM leukemia
  TGI: 20.5 µM
COLO 205 colon
  TGI: 28 µM
DLD-1 colon
  TGI: 18.4 µM
DMS 114 small cell lung
  TGI: 19.4 µM
DMS 273 small cell lung
  TGI: 25.1 µM
EKVX NSCLC
  TGI: 21.1 µM
HCC-2998 colon
  TGI: 19.2 µM
HCT-116 colon
  TGI: 12.3 µM
HCT-15 colon
  TGI: 20.1 µM
HL-60(TB) leukemia
  TGI: 25.1 µM
HOP-18 NSCLC
  TGI: 9.05 µM
HOP-62 NSCLC
  TGI: 21.3 µM
HOP-92 NSCLC
  TGI: 7.79 µM
HT29 colon
  TGI: 18.3 µM
IGROV1 ovarian
  TGI: 20.6 µM
K-562 leukemia
  TGI: 15 µM
KM12 colon
  TGI: 21.1 µM
KM20L2 colon
  TGI: 22.4 µM
LOX IMVI melanoma
  TGI: 31.6 µM
M14 melanoma
  TGI: 20.6 µM
M19-MEL melanoma
  TGI: 23 µM
MALME-3M melanoma
  TGI: 16.6 µM
MOLT-4 leukemia
  TGI: 21.8 µM
NCI-H226 lung
  TGI: 25.8 µM
NCI-H23 lung
  TGI: 13.8 µM
NCI-H460 lung
  TGI: 32.8 µM
NCI-H522 lung
  TGI: 7.25 µM
OVCAR-3 ovarian
  TGI: 14.3 µM
OVCAR-4 ovarian
  TGI: 16.3 µM
OVCAR-5 ovarian
  TGI: 29 µM
OVCAR-8 ovarian
  TGI: 25 µM
RPMI-8226 leukemia
  TGI: 13.2 µM
RXF 393 renal
  TGI: 6.01 µM
RXF-631 renal
  TGI: 21.9 µM
SF-268 CNS
  TGI: 15.1 µM
SF-295 CNS
  TGI: 17.4 µM
SF-539 CNS
  TGI: 21.8 µM
SK-MEL-2 melanoma
  TGI: 13.7 µM
SK-MEL-28 melanoma
  TGI: 20 µM
SK-MEL-5 melanoma
  TGI: 20.5 µM
SK-OV-3 ovarian
  TGI: 28.1 µM
SN12C renal
  TGI: 21.6 µM
SNB-19 CNS
  TGI: > 100 µM
SNB-75 CNS
  TGI: 17.6 µM
SNB-78 CNS
  TGI: 28.8 µM
SW-620 colon
  TGI: 21.7 µM
TK-10 renal
  TGI: 24.7 µM
U251 CNS
  TGI: 25.7 µM
UACC-257 melanoma
  TGI: 19.2 µM
UACC-62 melanoma
  TGI: 22.4 µM
UO-31 renal
  TGI: 8.73 µM
XF 498 CNS
  TGI: 14.3 µM

## CCOC(=O)/C=C(\C)c1ccc(C)cc1C
A498 renal
  TGI: > 100 µM
A549 NSCLC
  TGI: > 100 µM
ACHN renal
  TGI: > 100 µM
CAKI-1 renal
  TGI: > 100 µM
CCRF-CEM leukemia
  TGI: > 100 µM
COLO 205 colon
  TGI: > 100 µM
DLD-1 colon
  TGI: 31.5 µM
DMS 114 small cell lung
  TGI: > 100 µM
DMS 273 small cell lung
  TGI: > 100 µM
EKVX NSCLC
  TGI: > 100 µM
HCC-2998 colon
  TGI: > 100 µM
HCT-116 colon
  TGI: > 100 µM
HCT-15 colon
  TGI: 88.6 µM
HL-60(TB) leukemia
  TGI: 11.9 µM
HOP-18 NSCLC
  TGI: > 100 µM
HOP-92 NSCLC
  TGI: 63.8 µM
HT29 colon
  TGI: > 100 µM
IGROV1 ovarian
  TGI: > 100 µM
K-562 leukemia
  TGI: > 100 µM
KM12 colon
  TGI: > 100 µM
KM20L2 colon
  TGI: > 100 µM
LOX IMVI melanoma
  TGI: 31.3 µM
LXFL 529 NSCLC
  TGI: 28.6 µM
M14 melanoma
  TGI: > 100 µM
MALME-3M melanoma
  TGI: 53.9 µM
MOLT-4 leukemia
  TGI: > 100 µM
NCI-H226 lung
  TGI: > 100 µM
NCI-H23 lung
  TGI: > 100 µM
NCI-H460 lung
  TGI: > 100 µM
OVCAR-4 ovarian
  TGI: > 100 µM
OVCAR-5 ovarian
  TGI: > 100 µM
OVCAR-8 ovarian
  TGI: > 100 µM
RPMI-8226 leukemia
  TGI: 68.2 µM
RXF 393 renal
  TGI: 27.7 µM
RXF-631 renal
  TGI: > 100 µM
SF-268 CNS
  TGI: > 100 µM
SF-295 CNS
  TGI: > 100 µM
SF-539 CNS
  TGI: > 100 µM
SK-MEL-2 melanoma
  TGI: > 100 µM
SK-MEL-28 melanoma
  TGI: 51.8 µM
SK-MEL-5 melanoma
  TGI: > 100 µM
SN12C renal
  TGI: > 100 µM
SNB-19 CNS
  TGI: > 100 µM
SNB-75 CNS
  TGI: > 100 µM
SNB-78 CNS
  TGI: > 100 µM
SR leukemia
  TGI: 37.3 µM
SW-620 colon
  TGI: 37.8 µM
TK-10 renal
  TGI: > 100 µM
U251 CNS
  TGI: > 100 µM
UACC-257 melanoma
  TGI: > 100 µM
UO-31 renal
  TGI: > 100 µM
XF 498 CNS
  TGI: 43.2 µM

## CC[C@H]1CN2CCc3cc(OC)c(OC)cc3[C@@H]2C[C@@H]1C[C@H]1NCCc2cc(OC)c(OC)cc21
786-0 renal
  TGI: 0.0621 µM and 0.248 µM
A498 renal
  TGI: 0.176 µM
ACHN renal
  TGI: 0.0974 µM and 0.428 µM
BT-549 breast
  TGI: 0.658 µM
CAKI-1 renal
  TGI: 0.111 µM and 0.333 µM
CCRF-CEM leukemia
  GI50: 0.0215 µM
  TGI: 0.0656 µM
COLO 205 colon
  TGI: 0.0283 µM and 0.0201 µM
DLD-1 colon
  TGI: 0.591 µM and 0.408 µM
DMS 114 small cell lung
  TGI: 0.136 µM and 0.0466 µM
DMS 273 small cell lung
  TGI: 0.18 µM and 0.0463 µM
DU-145 prostate
  TGI: 0.0643 µM
EKVX NSCLC
  TGI: 0.151 µM and 0.144 µM
HCC-2998 colon
  TGI: 0.0943 µM and 0.0555 µM
HCT-116 colon
  TGI: 0.0805 µM and 0.153 µM
HCT-15 colon
  TGI: 0.76 µM and 1.27 µM
HOP-18 NSCLC
  TGI: 0.403 µM
HOP-62 NSCLC
  TGI: 0.216 µM and 0.221 µM
HOP-92 NSCLC
  TGI: 0.196 µM and 0.0779 µM
HS 578T breast
  TGI: 0.0665 µM
HT29 colon
  TGI: 0.242 µM and 0.168 µM
IGROV1 ovarian
  TGI: 0.0935 µM and 0.277 µM
K-562 leukemia
  TGI: 0.0932 µM
KM12 colon
  TGI: 0.138 µM
KM20L2 colon
  TGI: 0.488 µM and 0.312 µM
LOX IMVI melanoma
  TGI: 0.0205 µM
M14 melanoma
  TGI: 0.0512 µM and 0.0606 µM
M19-MEL melanoma
  TGI: 0.0824 µM and 0.147 µM
MALME-3M melanoma
  TGI: 0.255 µM
MDA-MB-231 breast
  TGI: 0.0458 µM
MDA-MB-435
  TGI: 0.0442 µM
MDA-N
  TGI: 0.0589 µM
NCI-H226 lung
  TGI: 0.164 µM and 0.476 µM
NCI-H23 lung
  TGI: 0.14 µM and 0.026 µM
NCI-H460 lung
  TGI: 0.0713 µM and 0.03 µM
NCI-H522 lung
  TGI: 0.0392 µM and 0.0356 µM
NCI/ADR-RES ovarian
  TGI: 0.502 µM
OVCAR-3 ovarian
  TGI: 0.187 µM and 0.18 µM
OVCAR-4 ovarian
  TGI: 0.0541 µM and 0.0117 µM
OVCAR-5 ovarian
  TGI: 0.2 µM and 0.551 µM
OVCAR-8 ovarian
  TGI: 0.532 µM and 1.09 µM
PC-3 prostate
  TGI: 0.103 µM
RPMI-8226 leukemia
  TGI: 0.151 µM and 0.0175 µM
RXF 393 renal
  TGI: 0.0593 µM
SK-MEL-2 melanoma
  TGI: 0.111 µM and 0.17 µM
SK-MEL-28 melanoma
  TGI: 0.176 µM and 0.109 µM
SK-MEL-5 melanoma
  TGI: 0.0701 µM and 0.0855 µM
SK-OV-3 ovarian
  TGI: 0.223 µM and 0.991 µM
SN12C renal
  TGI: 0.295 µM and 0.271 µM
T-47D breast
  TGI: 0.0887 µM
TK-10 renal
  TGI: 0.0784 µM and 0.309 µM
UACC-257 melanoma
  TGI: 0.361 µM and 0.529 µM
UACC-62 melanoma
  TGI: 0.206 µM and 0.0957 µM
UO-31 renal
  TGI: 0.242 µM and 0.978 µM
